# Experimental data taken from patent publication US8105994B2, “Personal wash cleanser comprising defined alkanoyl compounds, defined fatty acyl isethionate surfactant product and skin or hair benefit agent delivered in flocs upon dilution” (priority 2010, dated 2012).
# Tested on: skin, intrascapular area of the back
# Assay: 14-day cumulative irritation Patch Test, cleansers diluted to 25% w/w in distilled water, occlusive patch
# Experimental: This was randomized, double-blind study. A sufficient number of subjects were recruited to ensure that 25 subjects completed the study. The 14-day cumulative irritation test was conducted as follows. Patching occurred for 14 consecutive days, except on Sundays. Patches applied on Saturday were left in place until Monday, when freshly prepared patches were applied. The designated patch test sites were approximately 2 cm×2 cm on the intrascapular area of the back. Approximately 0.2 mL of the test product was placed onto a Parke-Davis Readi-Bandage® occlusive patch that measured 2 cm×2 cm. Solutions were made by diluting the cleansers to 25% w/w in distilled water. The patch was then applied to the designated test site. The patches were secured with hypoallergenic tape (Scanpor {Allerderm} as needed). A 0.5% sodium dodecyl sulfate (SDS) solution was used as the control in the test.
# Each day following application, the patches were removed, the sites evaluated and identical patches reapplied to the same test sites. All evaluations were made using the following 6-point scoring system: • 0=No evidence of any effect • +=Barely perceptible (minimal, faint, uniform or spotty erythema) numerically equivalent to 0.5 • 1=Mild (pink, uniform erythema covering most of the contact site) • 2=Moderate (pink-red, erythema uniform in the entire contact site) • 3=Marked (bright red erythema with/without petechiae or papules) • 4=Severe (deep red erythema with/without vesiculation or weeping)
# If a dermal reaction of 3 or 4 occur with any of the test articles at any point during the study, further patch testing on that subject was terminated at the test site involved, and the attained score was assigned to that site for the subsequent scheduled test days.
# Cumulative irritation scores, which were the sum of the numerical irritation grades assigned daily during the 14-day test period, were calculated at the end of the study to compare mildness of the test products. […] The data were statistically analyzed using Tukey-Kramer Comparison, and statistical significance was determined at the 95% confidence level.
compound,measurement,setting,value
"CCCCCCCCCCCCOS(=O)(=O)[O-].[Na+] [0.5% SDS Solution, sodium dodecyl sulfate]",Total irritation score compared to 0.5% SDS solution,"Table 1, first patch test (Olay products)",100%
same,Patch test Total irritation score,"Table 1, first patch test (Olay products; 0.5% SDS control 783)",783
same,Total irritation score compared to 0.5% SDS solution,"Table 1, second patch test (Dove Deep Moisture)",100%
same,Patch test Total irritation score,"Table 1, second patch test (Dove Deep Moisture; 0.5% SDS control 912)",912
